Measured values published in article PMC4412663, “Pathway for Biodegrading Microcystin-YR by Sphingopyxis sp. USTB-05” (PLoS ONE, 2015).

Legend:
Sphingopyxis sp. USTB-05 = conditions: cited from earlier work
[1] = test system: crude enzymes (CEs) of Sphingopyxis sp. USTB-05; conditions: cited from earlier work
[2] = test system: crude enzymes (CEs) of Sphingopyxis sp. USTB-05; test: Enzymatic biodegradation by crude enzymes (CEs) of Sphingopyxis sp. USTB-05; assay type: in vitro ADME
Description: At logarithmic growth phase of the third day, the culture solution of Sphingopyxis sp. USTB-05 was centrifuged at 8,000 r/min for 20 min, and then the supernatant was decanted. The pelleted cells were washed three times with 50 mmol/L phosphate buffer solution (PBS, pH 7.0). The harvested cells were resuspended in 20 mL PBS and disrupted using an ultrasonic disruptor with an output power of 600 W for 15 min at 4°C. The cell debris was removed by centrifugation at 12,000 r/min for 30 min. The supernatant was collected, and after handling by 3500 MWCO dialysis bag small molecules such as Tyr was removed, it was used as CEs in the enzymatic biodegradation of MC-YR and its protein profile was determined using sodium dodecyl sulfate-polyacrylamide gel electrophoresis (SDS-PAGE) on 12% polyacrylamide gel. […].
The total biodegradation reaction volume was 5 mL containing 14.8 mg/L MC-YR and 103.6 mg/L protein in PBS in a 10 mL centrifuge tube. The reaction was at 30°C with the shake rate of 200 r/min. […]
MC-YR and its enzymatic biodegradation products were firstly measured using a HPLC system (Shimadzu LC-10ATVP, Shimadzu Co., Ltd., Japan) with a ultraviolet (UV) Diode Array Detector at 238 nm and 230 nm using a Agilent TC-C18 column (4.6 mm×250 mm) (Agilent, 1200 series, USA). […]

For microcystin-LR [MC-LR], the “time to total removal by USTB-05” value (Sphingopyxis sp. USTB-05) is given as no more than 20 h and the “time to total removal by CEs of USTB-05” value [1] is given as no more than 10 h.
In the case of microcystin-RR [MC-RR], the “time to complete biodegradation by Sphingopyxis sp. USTB-05” value (Sphingopyxis sp. USTB-05) is listed as no more than 36 h.
In the case of microcystin-YR [MC-YR], the “average biodegradation rate of MC-YR” value [2] was 1.5 mg/L per hour and the “time to complete removal of MC-YR by CEs” value ([2]; pH 7) was no more than 10 h.
